The test system of assay [1] is collagen. The experiment in a line: Hydroxproline assay of mouse acute wound tissue. In kind it is in vivo, C3H mouse. Conditions: wound tissue of Test Example 2; absorbance at 550 nm; FIG. 4B. The method, then: (B) The tissue used in Test Example 2 was dried in an incubator at 60° C. and then hydrolyzed at 110° C. with 6 N HCl. After adding chloramine T and Ehrlich's reagent to the hydrolyzed tissue, absorbance was measured at 550 nm using the FLUOstar OPTIMA luminometer.

The subject of assay [2] is collagen. The experiment in a line: Collagen staining of mouse acute wound tissue (Masson's trichrome, picrosirius red, van Gieson). In kind it is in vivo, C3H mouse. Conditions: wound tissue of Test Example 2; FIG. 4A. The method, then:
(A) The mouse tissue used in Test Example 2 was fixed in 4% paraformaldehyde, embedded in paraffin and sliced with a thickness of 4 μm. The sliced tissue was deparaffinized, rehydrated and then subjected to van Gieson staining, Masson's trichrome staining and picrosirius red staining in order to evaluate the degree of collagen synthesis. Van Gieson staining was conducted by immersing the slide in Weigert's solution for 10 minutes and then in picro fuchsin solution for 2 minutes. Masson's trichrome staining was conducted by immersing the slide in Weigert's iron hematoxylin solution for 10 minutes and then in Biebrich scarlet/acid fuchsin and aniline blue for 5 minutes, respectively. Picrosirius red staining was conducted by immersing the slide in Weigert's solution for 8 minutes and then in picrosirius red for 1 hour.

In assay [3] the test system is β-catenin, keratin 14, α-SMA, collagen I. The experiment in a line: Western blotting of mouse wound tissue. In kind it is in vivo, C3H mouse. The note with it: wound tissue of Test Example 2; versus control; FIG. 3. The method, then:
The wound tissue used in Test Example 2 was lysed with RIPA buffer and proteins were isolated on 10% SDS polyacrylamide gel and then transferred onto a membrane. The membrane was blocked using 5% nonfat dry skim milk and then incubated with β-catenin (1:1000), α-SMA (1:1000), keratin 14 (1:1000) and collagen I (1:2000) antibodies. After inducing antigen-antibody reactions by adding enzyme-conjugated secondary antibodies that can recognize the antibodies as antigens, the result was observed using a LAS image analyzer.
For orientation: In western blotting, separated proteins are transferred to a membrane and probed.

Assay [4] relates to acute wound in a mouse model. The experiment in a line: Mouse acute wound healing model (wound closure, H&E, immunohistochemical staining). In kind it is in vivo, C3H mouse. The note with it: for re-epithelialization of the acute wound (H&E staining): C3H mouse wound. The method, then: (A) In order to confirm the wound healing promoting effect of the peptide synthesized in Example 1, hair was removed the back of a 7-week-old C3H mouse and a 1.5 cm×1.5 cm sized wound was made. For a control group, 10 μL of a vehicle (50% ethanol, 20% propylene glycol, 30% water) was applied once a day for a period of 12 days. For test groups, 10 μL of the peptide or valproic acid (VPA) dissolved in the vehicle at concentrations of 100 μM and 500 mM, respectively, was applied. The skin tissue of the experimental mouse was fixed in 4% paraformaldehyde, embedded in paraffin and sliced with a thickness of 4 μm. The sliced tissue was deparaffinized, rehydrated and then stained with hematoxylin (violet) and eosin (pink) for observation of histological structure. For immunohistochemical staining, the skin tissue slice was deparaffinized, rehydrated and then incubated with 10 mM sodium citrate buffer at 121° C. for 15 minutes to recover antigenicity. The slice was blocked with albumin to prevent nonspecific antigen-antibody reactions and then antigen-antibody reactions were induced by treating with β-catenin (1:100), keratin 14 (1:1000) and collagen I (1:500) antibodies used as wound healing markers. Subsequently, after inducing antigen-antibody reactions by treating the slice with fluorescence-labeled secondary antibodies that can recognize the antibodies as antigens, the result was observed using a fluorescence microscope.
(B) In order to compare the wound healing promoting effect of the synthesized peptide with that of the existing drug, 10 μL of a vehicle (50% ethanol, 20% propylene glycol, 30% water), 100 μM PTD-DBM or 1.5 μM fibronectin was applied on a 1.5 cm×1.5 cm sized wound of a 7-week-old C3H mouse once a day for a period of 12 days.

Assay [5] deals with keratinocytes. As to the kind of experiment: Immunocytochemical staining of keratinocytes (peptide infiltration, β-catenin). In kind it is cell-based. The note with it: FIG. 1. Here is the method: (§1) For immunocytochemical staining, keratinocytes or fibroblasts were cultured on a 24-well plate and fixed in 4% paraformaldehyde for 15 minutes. After treating with 0.1% Triton X-100 for 15 minutes so that antibodies can permeate well and blocking with albumin so as to prevent nonspecific antigen-antibody reactions, antigen-antibody reactions were induced by treating with β-catenin antibodies. Then, after inducing antigen-antibody reactions by treating with fluorescence-labeled secondary antibodies that can recognize the antibodies as antigens, the result was observed under a fluorescence microscope.

Assay [6] has as its system fibroblasts. The experiment in a line: Immunocytochemical staining of fibroblasts (peptide infiltration, β-catenin). In kind it is cell-based. The note with it: FIG. 1. Here is the method:
as §1

The mark [7] stands for this setting: 10 μL topical once a day for 12 days, peptide 100 μM, VPA 500 mM.

As to `CCCC(CCC)C(=O)O` [VPA, valproic acid, reference compound], the “collagen in acute wound tissue (hydroxproline assay)” value in assay [1] is “increased collagen”. In addition, the “collagen in acute wound tissue (Masson's trichrome, picrosirius red and van Gieson staining)” value in assay [2] is “increased collagen”. Further, the “wound healing markers β-catenin, keratin 14, α-SMA or collagen I (western blotting)” value in assay [3] is on record as “increased as compared to the control”. In addition, in assay [4] (setting [7]), the “re-epithelialization of the acute wound (H&E staining)” value is on record as “quick re-epithelialization”.

Regarding “RRRRRRRRGGGGRKTGHQICKFRKCK-(FITC) [PTD-DBM]”, the β-catenin entry in assay [5] and in assay [6] was “increased β-catenin in a concentration-dependent manner” in each case. In assay [1], the “collagen in acute wound tissue (hydroxproline assay)” value was “increased collagen”. Also, the “collagen in acute wound tissue (Masson's trichrome, picrosirius red and van Gieson staining)” value in assay [2] is reported as “increased collagen”. The “wound healing markers β-catenin, keratin 14, α-SMA or collagen I (western blotting)” value in assay [3] is reported as “increased as compared to the control”. Moreover, the “wound healing effect compared with fibronectin” value in assay [4] (100 μM PTD-DBM vs 1.5 μM fibronectin, 10 μL once a day for 12 days, C3H mouse, FIG. 2B) is on record as “excellent when compared with that of fibronectin”. Further, the “healing of acute wound” value in assay [4] (1.5 cm×1.5 cm wound, 7-week-old C3H mouse, 10 μL topical once a day for 12 days, peptide 100 μM, VPA 500 mM, FIGS. 2A and 2B) is “could quickly heal the acute wound”. The “re-epithelialization of the acute wound (H&E staining)” value in assay [4] (setting [7]) was “quick re-epithelialization”.

(Values after patent US9763994B2, “Composition for promoting wound healing” (INDUSTRY-ACADEMIC COOPERATION FOUNDATION, YONSEI UNIVERSITY, priority 2014, dated 2017).)
